Assay results published in patent publication US6872745B2, “Antipicornaviral compounds and compositions, their pharmaceutical uses, and materials for their synthesis” (Agouron Pharmaceuticals, Inc., priority 2000, dated 2005).

Assays:
[1] = target: T1, rhinovirus 3C protease, serotype 14 (Human rhinovirus 14, UniProt P03303); experiment: Inhibition of rhinovirus 3C protease (FRET assay, enzyme start); assay type: biochemical; details: HRV-14 3C protease, progress curves, read-out: Kobs/I
T1 construct: Recombinant rhinovirus 3C proteases; made in house
Description: Stock solutions (50 mM, in DMSO) of various compounds were prepared; dilutions were in the same solvent. Recombinant rhinovirus 3C proteases (see Birch et al., “Purification of recombinant human rhinovirus 14 3C protease expressed in Escherichia coli,” Protein Expr. Pur. (1995), vol. 6(5), 609-618) from serotypes 14, 16, and 2 were prepared by the following standard chromatographic procedures: (1) ion exchange using Q Sepharose Fast Flow from Pharmacia; (2) affinity chromatography using Affi-Gel Blue from Biorad; and (3) sizing using Sephadex G-100 from Pharmacia. Each assay sample contained 2% DMSO, 50 mM tris pH 7.6, 1 mM EDTA, a test compound at the indicated concentration, approximately 1 μM substrate, and 50-100 nM protease. The kobs/I values were obtained from reactions initiated by addition of enzyme rather than substrate. RVP activity was measured in the fluorescence resonance energy transfer assay. The substrate was (N-terminal) DABCYL-(Gly-Arg-Ala-Val-Phe-Gln-Gly-Pro-Val-Gly)-EDANS. In the uncleaved peptide, the EDANS fluorescence was quenched by the proximal DABCYL moiety. When the peptide was cleaved, the quenching was relieved, and activity was measured as an increase in fluorescence signal. The tabulated data in the column designated kobs/[I] were measured from progress curves in enzyme start experiments.

HRV-14 = experiment: Antirhinoviral H1-HeLa cell culture assay (XTT cell protection); assay type: cell-based, human rhinovirus; details: Rhinovirus B, HRV14, H1-HeLa, HRV-14, H1-HeLa cells
Description: (§1) In this cell protection assay, the ability of compounds to protect cells against HRV infection was measured by the XTT dye reduction method, which is described in Weislow et al., J. Natl. Cancer Inst. (1989), vol. 81, 577-586. H1-HeLa cells were infected with HRV-14 at a multiplicity of infection (m.o.i.) of 0.13 (virus particles/cell) or mock-infected with medium only. Infected or mock-infected cells were resuspended at 8×10^5 cells per ml, and incubated with appropriate concentrations of the compounds to be tested. Two days later, XTT/PMS was added to test plates and the amount of formazan produced was quantified spectrophotometrically at 450/650 nm. The EC50 value was calculated as the concentration of compound that increased the percentage of formazan production in compound-treated, virus-infected cells to 50% of that produced by compound-free, mock-infected cells. The 50% cytotoxic dose (CC50) was calculated as the concentration of compound that decreased the percentage of formazan produced in compound-treated, mock-infected cells to 50% of that produced by compound-free, mock-infected cells. The therapeutic index (TI) was calculated by dividing the CC50 value by the EC50 value.
(§2) All strains of human rhinovirus (HRV) for use in this assay were purchased from American Type Culture Collection (ATCC), except for HRV serotype-14 (produced from the infectious cDNA clone constructed by Dr. Robert Rueckert, Institute for Molecular Virology, University of Wisconsin, Madison, Wis.). HRV stocks were propagated and viral assays were performed in H1-HeLa cells (ATCC). Cells were grown in minimal essential medium with 10% fetal bovine serum, available from Life Technologies (Gaithersburg, Md.).

[2] = Cytotoxicity in mock-infected cells of the antirhinoviral assay (XTT); assay type: cell-based; details: human, H1-HeLa cells, table line HRV-14
Description: as §1, §2

T1 sequence (P03303 1538-1719): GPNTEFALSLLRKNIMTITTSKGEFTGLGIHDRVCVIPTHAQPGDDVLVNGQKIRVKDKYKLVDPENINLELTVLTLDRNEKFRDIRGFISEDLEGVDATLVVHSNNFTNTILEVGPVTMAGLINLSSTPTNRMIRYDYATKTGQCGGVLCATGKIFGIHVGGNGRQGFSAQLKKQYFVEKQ

Compound	kinact/KI [1]	EC50 (HRV-14)	CC50 at 2 days [2]
CCOC(=O)/C=C/[C@H](CCC(N)=O)NC(=O)[C@H](Cc1ccccc1)NC(=O)c1ccc(-c2cccc(Cl)c2Cl)[nH]1 [Compound 1]	20300 M⁻¹ s⁻¹	202 nM	> 10 µM
CCOC(=O)/C=C/[C@H](CCC(N)=O)NC(=O)[C@H](Cc1ccccc1)NC(=O)c1ccc(-c2ccccc2C(F)(F)F)[nH]1 [Compound 2, 6-Carbamoyl-4S-{3-phenyl-2S-[(5-(2-trifluoromethyl-phenyl)-1H-pyrrole-2-carbonyl)-amino]-propionylamino}-hex-2(trans)-enoic acid ethyl ester]	32400 M⁻¹ s⁻¹	64 nM	> 10 µM
CCOC(=O)/C=C/[C@H](CCC(N)=O)NC(=O)[C@H](Cc1ccccc1)NC(=O)c1ccc(-c2cccc3ccccc23)[nH]1 [Compound 3]	30800 M⁻¹ s⁻¹	109 nM	> 10 µM
CCOC(=O)/C=C/[C@H](CCC(N)=O)NC(=O)[C@H](Cc1ccccc1)NC(=O)c1ccc(-c2cc(Cl)ccc2OC)[nH]1 [Compound 4, 6-Carbamoyl-4S-(2S-{[5-(5-chloro-2-methoxy-phenyl)-1H-pyrrole-2-carbonyl]amino}-3-phenyl-propionylamino)-hex-2(trans)-enoic acid ethyl ester]	5860 M⁻¹ s⁻¹		
CCOC(=O)/C=C/[C@H](CCC(N)=O)NC(=O)[C@H](Cc1ccccc1)NC(=O)c1ccc(-c2cncc3ccccc23)[nH]1 [Compound 5, 6-Carbamoyl-4S-{2S-[(5-isoquinolin-4-yl-1H-pyrrole-2-carbonyl)-amino]-3-phenyl-propionylamino}-hex-2(trans)-enoic acid ethyl ester]	12700 M⁻¹ s⁻¹	1100 nM	> 10 µM
CCOC(=O)/C=C/[C@H](CCC(N)=O)NC(=O)[C@H](Cc1ccccc1)NC(=O)c1ccc(-c2cccc(C(C)C)c2)[nH]1 [Compound 6, 6-Carbamoyl-4S-(2S-{[5-(3-isopropyl-phenyl)-1H-pyrrole-2-carbonyl]-amino}-3-phenyl-propionylamino)-hex-2(trans)-enoic acid ethyl ester]	2130 M⁻¹ s⁻¹	1420 nM	> 10 µM
CCOC(=O)/C=C/[C@H](CCC(N)=O)NC(=O)[C@H](Cc1ccccc1)NC(=O)c1ccc(-c2cc(OC)ccc2OC)[nH]1 [Compound 7, 6-Carbamoyl-4S-(2S-{[5-(2,5-dimethoxy-phenyl)-1H-pyrrole-2-carbonyl]-amino}-3-phenyl-propionylamino)-hex-2-enoic acid ethyl ester]	5200 M⁻¹ s⁻¹	300 nM	> 10 µM
CCOC(=O)/C=C/[C@H](CCC(N)=O)NC(=O)[C@H](Cc1ccccc1)NC(=O)c1ccc(-c2cccnc2)[nH]1 [Compound 8, 6-Carbamoyl-4S-{3-phenyl-2S-[(5-pyridin-3-yl-1H-pyrrole-2-carbonyl)-amino]-propionylamino}-hex-2(trans)-enoic acid ethyl ester]	1300 M⁻¹ s⁻¹	4920 nM	> 10 µM
CCOC(=O)/C=C/[C@H](CCC(N)=O)NC(=O)[C@H](Cc1ccccc1)NC(=O)c1ccc(-c2ccccc2C)[nH]1 [Compound 9, 6-Carbamoyl-4S-{3-phenyl-2S-[(5-o-tolyl-1H-pyrrole-2-carbonyl)-amino]-propionylamino}-hex-2(trans)-enoic acid ethyl ester]	12600 M⁻¹ s⁻¹		
CCOC(=O)/C=C/[C@H](CCC(N)=O)NC(=O)[C@H](Cc1ccccc1)NC(=O)c1ccc(-c2ccccc2)[nH]1 [Compound 10, 6-Carbamoyl-4S-{3-phenyl-2S-[(5-phenyl-1H-pyrrole-2-carbonyl)-amino]-propionylamino}-hex-2(trans)-enoic acid ethyl ester]	2370 M⁻¹ s⁻¹		
CCOC(=O)/C=C/[C@H](CCC(N)=O)NC(=O)[C@H](Cc1ccccc1)NC(=O)c1ccc(-c2ccccc2OC)[nH]1 [Compound 11, 6-Carbamoyl-4S-(2S-{[5-(2-methoxy-phenyl)-1H-pyrrole-2-carbonyl]-amino}-3-phenyl-propionylamino)-hex-2(trans)-enoic acid ethyl ester]	5000 M⁻¹ s⁻¹	646 nM	> 10 µM
CCOC(=O)/C=C/[C@H](CCC(N)=O)NC(=O)[C@H](Cc1ccccc1)NC(=O)c1ccc(-c2cccc3c2OCO3)[nH]1 [Compound 12]	2700 M⁻¹ s⁻¹	1250 nM	> 10 µM
CCOC(=O)/C=C/[C@H](CCC(N)=O)NC(=O)[C@H](Cc1ccccc1)NC(=O)c1ccc(C(C)CC(F)(F)F)[nH]1 (stereo partly drawn) [Compound 13, 6-Carbamoyl-4S-(3-phenyl-2S-{[5-(3,3,3-trifluoro-1 methyl-propyl)-1H-pyrrole-2-carbonyl]-amino}-propionylamino)-hex-2(trans)-enoic acid ethyl ester]	6570 M⁻¹ s⁻¹	2010 nM	> 10 µM
CCOC(=O)/C=C/[C@H](CCC(N)=O)NC(=O)[C@H](Cc1ccccc1)NC(=O)c1ccc(-c2ccccc2Br)[nH]1 [Compound 14, 4S-(2S-{[5-(2-Bromo-phenyl)-1H-pyrrole-2-carbonyl]-amino}-3-phenyl-propionylamino)-6-carbamoyl-hex-2(trans)-enoic acid ethyl ester]	34600 M⁻¹ s⁻¹	534 nM	> 10 µM
CCOC(=O)/C=C/[C@H](CCC(N)=O)NC(=O)[C@H](Cc1ccccc1)NC(=O)c1ccc(-c2cc(C)no2)[nH]1 [Compound 21, 6-Carbamoyl-4S-(2S-{[5-(3-methyl-isoxazol-5-yl)-1H-pyrrole-2-carbonyl]-amino}-3-phenyl-propionylamino)-hex-2(trans)-enoic acid ethyl ester]	1380 M⁻¹ s⁻¹		
O=C1OCC/C1=C\[C@H](C[C@@H]1CCNC1=O)NC(=O)C(CC(=O)c1ccc(-c2ccccc2)[nH]1)Cc1ccc(F)cc1 (stereo partly drawn) [Compound 31, 2-(R,S)-(4-Fluorobenzyl)-4-oxo-N-[2-(2-oxo-dihydro-furan-3-ylidine)-1S-(2-oxo-pyrrolidin-3S-ylmethyl)-ethyl]-4-(5-phenyl-1H-pyrrol-2-yl)-butyramide]	900 M⁻¹ s⁻¹		
O=C1OCC/C1=C\[C@H](C[C@@H]1CCNC1=O)NC(=O)[C@H](CC(=O)c1ccc(-c2cccc3ccccc23)[nH]1)Cc1ccc(F)cc1 [Compound 32, 2-(R,S)-(4-Fluorobenzyl)-4-(5-naphthalen-1-yl-1H-pyrrol-2-yl)-4-oxo-N-[2-(2-oxo-dihydro-furan-3-ylidine)-1S-(2-oxo-pyrrolidin-3S-ylmethyl)-ethyl]-butyramide]	8300 M⁻¹ s⁻¹		
O=C1OCC/C1=C\[C@H](C[C@@H]1CCNC1=O)NC(=O)C(CC(=O)c1ccc[nH]1)Cc1ccc(F)cc1 (stereo partly drawn) [Compound 34, 2-(R,S)-(4-Fluorobenzyl)-4-oxo-N-[2-(2-oxo-dihydro-furan-3-ylidine)-1S-(2-oxo-pyrrolidin-3S-ylmethyl)-ethyl]-4-(1H-pyrrol-2-yl)-butyramide]	520 M⁻¹ s⁻¹		
CCOC(=O)/C=C/[C@H](C[C@@H]1CCNC1=O)NC(=O)[C@H](Cc1ccc(F)cc1)NC(=O)c1cc2ccccc2[nH]1 [Compound 42, Ethyl-3-{(Indole-2-carboxylic acid)-L-(4-F-Phe)-L-[(S)-Pyrrol-Ala]}-E-Propenoate]	42 M⁻¹ s⁻¹		
CCOC(=O)/C=C/[C@H](C[C@@H]1CCNC1=O)NC(=O)CCC(C)=O [Compound 43, 4S-(4-oxo-pentanoylamino)-5-(2-oxo-pyrrolidin-3S-yl)-pent-2-enoic acid ethyl ester]	85 M⁻¹ s⁻¹		
CCOC(=O)/C=C/[C@H](C[C@@H]1CCNC1=O)NC(=O)CCC(=O)c1ccccc1 [Compound 44, 4S-(4-oxo-4-phenyl-butyrylamino)-5-(2-oxo-pyrrolidin-3S-yl)-pent-2-enoic acid ethyl ester]	1030 M⁻¹ s⁻¹		
CCOC(=O)/C=C/[C@H](C[C@@H]1CCNC1=O)NC(=O)CCC(=O)c1cccc2ccccc12 [Compound 45, 4-S-(4-Naphthalen-1-yl-4-oxo-butyrylamino)-5-(2-oxo-pyrrolidin-3S-yl)-pent-2-enoic acid ethyl ester]	629 M⁻¹ s⁻¹		
